# Measurements published in the supplement of paper PMC10307832.
# How the values were obtained:
# Assay in all cases: relative viability (nuclei count vs DMSO), 5 days (fraction); higher = more cells survive
# Apatinib + Linsitinib = compound: N#CC1(c2ccc(NC(=O)c3cccnc3NCc3ccncc3)cc2)CCCC1 [Apatinib] + C[C@]1(O)C[C@@H](c2nc(-c3ccc4ccc(-c5ccccc5)nc4c3)c3c(N)nccn32)C1 [Linsitinib] (partner 1 µM)
# Outline: (§1)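 One day after seeding in 1536-well plates, lung cancer cell lines were dosed by pin tool. Dosing was either single-drug or a fixed anchor-drug dose plus five library-drug doses (not always all listed) in √10 steps. After 5 days, nuclei were stained in one fix-and-stain step and counted on 4× images, and relative viability is the nuclei count of treated wells over that of vehicle wells, given as the median of duplicate plates.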
# Metformin + Olaparib = compound: CN(C)C(=N)NC(=N)N [Metformin] + O=C(c1cc(Cc2n[nH]c(=O)c3ccccc23)ccc1F)N1CCN(C(=O)C2CC2)CC1 [Olaparib] (partner 8 µM)
# Outline: as §1
# Metformin + Alpelisib = compound: CN(C)C(=N)NC(=N)N [Metformin] + Cc1nc(NC(=O)N2CCC[C@H]2C(N)=O)sc1-c1ccnc(C(C)(C)C(F)(F)F)c1 [Alpelisib] (partner 2 µM)
# Outline: as §1
# Apatinib + Bortezomib = compound: N#CC1(c2ccc(NC(=O)c3cccnc3NCc3ccncc3)cc2)CCCC1 [Apatinib] + CC(C)C[C@H](NC(=O)[C@H](Cc1ccccc1)NC(=O)c1cnccn1)B(O)O [Bortezomib] (partner 0.002 µM)
# Outline: as §1
Cell Line,relative viability (Apatinib + Linsitinib; first compound 0.08 µM),relative viability (Apatinib + Linsitinib; first compound 0.253 µM),relative viability (Apatinib + Linsitinib; first compound 0.8 µM),relative viability (Apatinib + Linsitinib; first compound 2.53 µM),relative viability (Apatinib + Linsitinib; first compound 8 µM),relative viability (Metformin + Olaparib; first compound 10 µM),relative viability (Metformin + Olaparib; first compound 31.62 µM),relative viability (Metformin + Olaparib; first compound 100 µM),relative viability (Metformin + Olaparib; first compound 316.23 µM),relative viability (Metformin + Olaparib; first compound 1000 µM),relative viability (Metformin + Alpelisib; first compound 10 µM),relative viability (Metformin + Alpelisib; first compound 31.62 µM),relative viability (Metformin + Alpelisib; first compound 100 µM),relative viability (Metformin + Alpelisib; first compound 316.23 µM),relative viability (Metformin + Alpelisib; first compound 1000 µM),relative viability (Apatinib + Bortezomib; first compound 0.08 µM),relative viability (Apatinib + Bortezomib; first compound 0.253 µM),relative viability (Apatinib + Bortezomib; first compound 0.8 µM),relative viability (Apatinib + Bortezomib; first compound 2.53 µM),relative viability (Apatinib + Bortezomib; first compound 8 µM)
COR-L23,1.09,0.927,0.931,0.746,0.713,0.256,0.3,0.336,0.231,0.254,0.633,0.721,0.72,0.564,0.7,1.07,1.03,0.971,0.793,0.898
A-427,1.1,1.06,1.07,1.11,1.09,0.645,0.773,0.708,0.625,0.447,1.07,1.14,1.02,1.05,1.03,1.08,0.955,1.01,0.886,0.945
NCI-H2342,–,–,–,–,–,–,0.375,0.372,0.418,0.358,–,–,–,–,–,–,–,–,–,–
201T,1.03,1.02,1.09,1.05,1.04,–,0.802,0.815,0.775,0.822,–,0.987,0.989,0.955,0.985,1.07,1.07,1.1,1.11,1.08
NCI-H522,–,–,–,–,–,0.721,0.752,0.745,0.652,0.698,–,–,–,–,–,–,–,–,–,–
NCI-H2023,0.816,0.886,0.615,0.683,0.607,0.332,0.366,0.282,0.344,0.31,–,0.558,0.627,–,0.506,1.02,1.09,1.02,0.858,0.856
NCI-H2085,0.879,0.987,0.949,0.745,0.815,0.621,0.633,0.596,0.591,0.654,0.956,0.955,0.944,0.903,0.985,1.1,0.831,1.06,1.13,1.04
LXF-289,0.974,0.964,0.96,0.941,0.896,0.929,0.922,0.829,0.917,0.93,0.909,0.97,0.963,0.943,1.01,1.02,0.983,0.984,0.936,0.96
NCI-H1975,0.988,0.954,0.931,0.854,0.888,0.653,0.931,0.874,0.849,0.955,0.766,0.839,0.862,0.707,0.861,0.466,0.417,0.314,0.323,0.388
LU99A,0.589,0.549,0.515,0.457,0.47,0.203,0.251,0.202,0.232,0.241,0.404,0.4,0.379,0.382,0.44,1.21,1.22,1.2,0.943,0.976
HCC-827,0.995,0.937,1.01,0.956,0.737,0.487,0.366,0.484,0.415,0.424,–,0.822,0.896,0.837,0.782,0.977,0.907,1.07,1.05,1.09
BEN,0.864,0.933,0.88,0.81,0.699,1.11,1.18,1.23,1.1,0.708,1.16,1.47,1.43,1.03,1.24,0.688,0.868,0.876,0.458,0.871
ChaGo-K-1,–,–,–,–,–,0.341,0.343,0.319,0.26,0.33,–,–,–,–,–,–,1.19,0.847,0.857,1.03
NCI-H1944,1.19,1.22,1.06,1.25,1.26,0.385,0.381,0.479,0.397,0.471,0.936,1.01,1.06,0.886,0.973,–,–,–,–,–
NCI-H1395,1.19,1.08,1.16,1.07,0.847,0.386,0.428,0.455,0.42,0.417,0.835,1.02,1.1,0.424,0.342,–,–,–,–,–
SK-MES-1,1.13,0.975,1.1,1.07,0.942,0.305,0.352,0.406,0.381,0.363,0.814,0.802,0.732,0.822,0.909,–,–,–,–,–
NCI-H1563,1.28,1.22,1.13,1.12,1.03,–,–,–,–,–,1.06,0.914,1.06,0.827,0.72,0.762,0.963,0.811,0.737,0.762
NCI-H1648,–,–,–,–,–,–,1.14,0.502,1.07,1.04,–,–,–,–,–,–,–,–,–,–
NCI-H2170,–,–,–,–,–,0.45,0.468,0.536,0.487,0.491,0.748,0.792,0.819,0.806,0.805,–,–,–,–,–
NCI-H1793,0.974,0.931,0.716,0.599,0.685,0.702,1.1,0.813,0.781,0.901,1.17,1.03,0.953,0.761,0.919,–,–,–,–,–
LK-2,0.602,0.356,0.631,0.503,0.399,0.79,0.509,0.644,0.734,0.873,1.56,1.53,1.63,1.36,1.32,–,–,–,–,–
